Results taken from patent publication US12636274B2, “Pharmaceutical compositions and methods for systemic treatment of solid tumors” (7 HILLS INTERESTS LLC, priority 2014, dated 2026).
Marks after values point to notes of the source that are not given here.

How the values were obtained:
Type in all cases: in vivo, Mouse (Mus musculus)
[1] = test system: CT26 colon cancer syngeneic tumor; assay: Study 2: CT26 syngeneic tumor model in Balb/c mice; conditions: for % Tumor Growth Inhibition: 1 mg/kg IP QD at 4 h; for Average Tumor Volume, Mean: 1 mg/kg IP QD
Procedure: (§1) Mouse colon carcinoma CT26 cells were obtained from American Type Culture Collection (ATCC), USA. Cells were grown in RPMI-1640 medium (Sigma, Cat # R6504) supplemented with 10% FBS (Invitrogen, Cat #10438-026), and 1% penicillin streptomycin (Thermo Fisher Scientific, Cat #15140-122). To establish allografts, 1 million CT26 cells were suspended in 50 μL of serum-free medium and mixed at 1:1 ratio with matrigel before implanting subcutaneously into the right flank of mice.
(§2) Prior to inoculation, the skin on the injection site was swabbed with alcohol. To establish allografts, CT26 cells were suspended in serum free medium at a concentration of (1×10^6)/50 μL, mixed with equal volume of matrigel (1:1 ratio) and 100 μL of this mixture was injected to each mouse by subcutaneous implantation using a 1 mL BD syringe attached to a 24 gauge needle.
(§3) CT26 tumor xenografts were measured after approximately 1 week of cell inoculation when they become palpable. When the average tumor volume reaches around 110 mm^3, animals were randomized into treatment groups group maintaining the average tumor volume of each group similar across groups for Study 1 and Study 2. In Study 3, the animals were randomized on the basis of body weights +1 day post cell implantation.
(§4) Tumor dimensions (length and breadth) were measured on days 0 (animal randomization based on tumor volume) and thrice weekly thereafter until study termination. Tumor volumes were calculated using the formula (b^2*l)*0.52 where l=length, b=breadth (Dusan Djokovic et al., BMC Cancer, 2010, 10:641). Tumor growth inhibition was calculated after normalizing the tumor volume on a given day to that on day 1.
(§5) Mean body weight loss and percent changes were calculated for each group. Similarly, mean tumor volume and percent tumor growth inhibition were calculated. The percent tumor growth inhibition (% TGI) as a function of anti-tumor efficacy were computed with respect to untreated vehicle control by comparing to the tumor volumes of day 1 using formula described below: % TGI=[1−(Treatment TVFinal−Treatment TVInitial)/(Control TVFinal−Control TVInitial)]*100
The test agent, Compound 1 was evaluated in CT26 syngeneic tumor model in Balb/c mice. Compound 1 was administered in mice when the starting tumor volume reached 110±6.9 mm^3 seven days after implantation of CT26 cells.

[2] = test system: CD3+ CD8+ and CD3+ CD4+ tumor infiltrating T-cells; assay: Tumor infiltrating lymphocytes (TILs) by FACS in CT26 tumors
Procedure: On day 19 of treatment initiation tumors were isolated from study mice aseptically (n=5/group).
Tumor tissue was minced devoid of dead and necrotic tissue was mechanically disaggregated aseptically in RPMI medium without proteolytic enzymes in gentleMACS C-tubes using gentleMACS Octo Dissociator under the program 37C_m_TDK_1_30m (Miltenyi Biotec). Cell suspension was enriched for single cells by filtering the disaggregated mix through 70 μm cell strainer. Cells were pelleted at 300 g for 7 min at 4° C., washed twice with fresh complete media followed by FACS buffer containing PBS w/o calcium and magnesium (pH 7.4), 2% FBS and 0.05% sodium azide. Note: Proteolytic enzymes may chew up the antigen epitopes, therefore enzymatic dissociation is not performed.
Five million total viable cells were used as input for staining with the following fluorochrome conjugated antibodies for 30 min on ice in dark. Unbound stain was removed by washing cells in FACS buffer twice. […]
Unstained cells were used for setting up gates and focus single cells using INSPIRE acquisition software in Amnis FlowSight flow cytometer (Amnis Corporation, Seattle, WA) with 405, 488, 642 nm excitation lasers. […]
Before proceeding for FACS acquisition, we have recorded the total viable cell yield for each tumor sample. […] From the CD3 positive population gated out of viable 7AAD-ve population, the percentage of viable cells displaying CD3 positive signal was recorded using the statistics option in FACS software. […] Based on this information, yield per million cells was calculated and reported in results.
In addition, tumors were allowed to grow up to day 18 with continued Compound 1 dose, that decreased tumor growth resulting in a significant inhibition p<0.01 in the q.d. group compared to p<0.0001 in BID group. […] Upon non-enzymatic dissociation, cell viability was assessed and subjected to enumeration of CD3^+, CD4^+ or CD8^+ tumor infiltrating T-cells (detailed method, refer section 11).

[3] = test system: CT26 colon cancer syngeneic tumor; assay: Study 3: CT26 syngeneic tumor model in Balb/c mice, treatment from +1 day after implantation
Procedure: as §1, §2, §3, §4, §5
The test agent, Compound 1 was evaluated in CT26 syngeneic tumor model in Balb/c mice. Compound 1 was administered in mice +1 day after CT26 cell implantation. Tumors were not measurable at this time, however, tumors became palpable on day 7 and tumors were measured from that point.

O=C(OCCOCCOCCOC(=O)N(Cc1cccs1)Cc1cccs1)N(Cc1cccs1)Cc1cccs1 [Compound 1, 3-oxo-1-(2-thienyl)-2-(2-thienylmethyl)-4,7,10-trioxa-2-azadodecan-12-yl bis(2-thienylmethyl)carbamate]
% Tumor Growth Inhibition ([1]; Day 2): −6.6% | % Tumor Growth Inhibition ([1]; Day 4): 33.0% | % Tumor Growth Inhibition ([1]; Day 6): 38.9% | % Tumor Growth Inhibition ([1]; Day 8): 31.6% | % Tumor Growth Inhibition ([1]; Day 10): 33.5% | % Tumor Growth Inhibition ([1]; Day 13): 46.0% | Average Tumor Volume, Mean ([1]; Day 1): 111 mm^3 | Average Tumor Volume, Mean ([1]; Day 2): 171 mm^3 | Average Tumor Volume, Mean ([1]; Day 4): 244 mm^3 | Average Tumor Volume, Mean ([1]; Day 6): 343 mm^3 | Average Tumor Volume, Mean ([1]; Day 8): 545 mm^3 | Average Tumor Volume, Mean ([1]; Day 10): 744* mm^3 | Average Tumor Volume, Mean ([1]; Day 13): 1038^‡ mm^3 | CD3+ and CD4+ double positive cells in tumor ([2]; Study 3, day 19, compared to vehicle control): decreased trend | CD3+ and CD8+ double positive T-cells in tumor ([2]; Study 3, day 19, compared to vehicle control, opposite to the decreased CD3+ CD4+ trend): trend was opposite | ratio of CD8+/CD4+ T-cells in tumors ([2]; single agent, in response to treatment): progressive increase | Average Tumor Volume, Mean ([3]; 1 mg/kg BID (IP), Day 7): 91 mm^3 | Average Tumor Volume, Mean ([3]; 1 mg/kg BID (IP), Day 10): 159 mm^3 | Average Tumor Volume, Mean ([3]; 1 mg/kg BID (IP), Day 12): 269 mm^3 | Average Tumor Volume, Mean ([3]; 1 mg/kg BID (IP), Day 14): 342^‡ mm^3 | Average Tumor Volume, Mean ([3]; 1 mg/kg BID (IP), Day 16): 512^‡‡ mm^3 | Average Tumor Volume, Mean ([3]; 1 mg/kg BID (IP), Day 18): 689^‡‡ mm^3 | Average Tumor Volume, Mean ([3]; 1 mg/kg IP QD, Day 7): 96 mm^3 | Average Tumor Volume, Mean ([3]; 1 mg/kg IP QD, Day 10): 193 mm^3 | Average Tumor Volume, Mean ([3]; 1 mg/kg IP QD, Day 12): 312 mm^3 | Average Tumor Volume, Mean ([3]; 1 mg/kg IP QD, Day 14): 415^† mm^3 | Average Tumor Volume, Mean ([3]; 1 mg/kg IP QD, Day 16): 566^†† mm^3 | Average Tumor Volume, Mean ([3]; 1 mg/kg IP QD, Day 18): 768^‡ mm^3 | inhibition in tumor volume (TGI) ([3]; IP BID (1 mg/kg), day 14, p<0.01): 57.6% | inhibition in tumor volume (TGI) ([3]; IP QD (1 mg/kg), day 14, p<0.05): 46.1%
